Test results: ChEMBL document CHEMBL5226369, “Tetracyclic Steroids Bearing a Bicyclo[4.4.1] Ring System as Potent Antiosteoporosis Agents from the Deep-Sea-Derived Fungus Rhizopus sp. W23” (J Nat Prod, 2023)

Assays:
Assay type in all cases: functional, cell-based
[1] = system: A-431; experiment: Antiproliferative activity against human A-431 cells by MTT assay
[2] = system: A549; experiment: Antiproliferative activity against human A549 cells by MTT assay
[3] = system: MDA-MB-231; experiment: Antiproliferative activity against human MDA-MB-231 cells by MTT assay
[4] = system: MCF7; experiment: Antiproliferative activity against human MCF7 cells by MTT assay
[5] = system: PANC-1; experiment: Antiproliferative activity against human PANC-1 cells by MTT assay
[6] = system: HepG2; experiment: Antiproliferative activity against human HepG2 cells by MTT assay
[7] = system: HCT-116; experiment: Antiproliferative activity against human HCT-116 cells by MTT assay
[8] = system: NCI-H460; experiment: Antiproliferative activity against human NCI-H460 cells by MTT assay
[9] = system: NCI-H1299; experiment: Antiproliferative activity against human NCI-H1299 cells by MTT assay
[10] = Antiproliferative activity against human QGY-7701 cells by MTT assay; details: QGY7701
[11] = system: BGC-823; experiment: Antiproliferative activity against human BGC-823 cells by MTT assay
[12] = Antiproliferative activity against human SKGT4 cells by MTT assay
[13] = system: A-375; experiment: Antiproliferative activity against human A-375 cells by MTT assay
[14] = system: U2OS; experiment: Antiproliferative activity against human U2OS cells by MTT assay
[15] = system: HL-60; experiment: Antiproliferative activity against human HL-60 cells by MTT assay
[16] = system: K562; experiment: Antiproliferative activity against human K562 cells by MTT assay
[17] = system: KYSE-450; experiment: Antiproliferative activity against human KYSE-450 cells by MTT assay
[18] = system: PC-3; experiment: Antiproliferative activity against human PC-3 cells by MTT assay

| SMILES | IC50 [1] [µM] | IC50 [2] [µM] | IC50 [3] [µM] | IC50 [4] [µM] | IC50 [5] [µM] | IC50 [6] [µM] | IC50 [7] [µM] | IC50 [8] [µM] | IC50 [9] [µM] | IC50 [11] [µM] | IC50 [13] [µM] | IC50 [14] [µM] | IC50 [15] [µM] | IC50 [16] [µM] | IC50 [18] [µM] | IC50 [10] [µM] | IC50 [12] [µM] | IC50 [17] [µM] |
| --- | --- | --- | --- | --- | --- | --- | --- | --- | --- | --- | --- | --- | --- | --- | --- | --- | --- | --- |
| C/C(=C\C(=O)C(C)O)[C@H]1CC[C@H]2C3=CC(=O)[C@H]4CC(=CC[C@H](O)C4)[C@H]3CC[C@]12C (stereo not given in full) | > 20 | > 20 | > 20 | > 20 | > 20 | > 20 | > 20 | > 20 | > 20 | > 20 | > 20 | > 20 | > 20 | > 20 | > 20 | > 20 | > 20 | > 20 |
| C/C(=C\C(=O)O)[C@H]1CC[C@H]2C3=CC(=O)[C@H]4CC(=CC[C@H](O)C4)[C@H]3CC[C@]12C | > 20 | > 20 | > 20 | > 20 | > 20 | > 20 | > 20 | > 20 | > 20 | > 20 | > 20 | > 20 | > 20 | > 20 | > 20 | > 20 | > 20 | > 20 |
| C/C=C/[C@@H](O)[C@](C)(O)[C@H]1CC[C@H]2C3=CC(=O)[C@H]4CC(=CC[C@H](O)C4)[C@H]3CC[C@]12C | > 20 | > 20 | > 20 | > 20 | > 20 | > 20 | > 20 | > 20 | > 20 | > 20 | > 20 | > 20 | > 20 | > 20 | > 20 | > 20 | > 20 | > 20 |
| CC(=O)/C=C/[C@@](C)(O)[C@H]1CC[C@H]2C3=CC(=O)[C@H]4CC(=CC[C@H](O)C4)[C@H]3CC[C@@]21C | > 20 | > 20 | > 20 | > 20 | > 20 | > 20 | > 20 | > 20 | > 20 | > 20 | > 20 | > 20 | > 20 | > 20 | > 20 | > 20 | > 20 | > 20 |
| C[C@]12CC[C@@H]3C4=CC[C@H](O)C[C@H](C4)C(=O)C=C3[C@@H]1CC[C@@H]2[C@](C)(O)CC(=O)O | > 20 | > 20 | > 20 | > 20 | > 20 | > 20 | > 20 | > 20 | > 20 | > 20 | > 20 | > 20 | > 20 | > 20 | > 20 | > 20 | > 20 | > 20 |
| C/C=C/[C@H](O)[C@](C)(O)[C@H]1CC[C@H]2C3=CC(=O)[C@H]4CC(=CC[C@H](O)C4)[C@H]3CC[C@]12C | > 20 | > 20 | > 20 | > 20 | > 20 | > 20 | > 20 | > 20 | > 20 | > 20 | > 20 | > 20 | > 20 | > 20 | > 20 | > 20 | > 20 | > 20 |
| C/C=C/[C@H](OC(C)=O)[C@](C)(O)[C@H]1CC[C@H]2C3=CC(=O)[C@H]4CC(=CC[C@H](O)C4)[C@H]3CC[C@]12C | > 20 | > 20 | > 20 | > 20 | > 20 | > 20 | > 20 | > 20 | > 20 | > 20 | > 20 | > 20 | > 20 | > 20 | > 20 | > 20 | > 20 | > 20 |
| CC(=O)OC(/C=C(\C)[C@H]1CC[C@H]2C3=CC(=O)[C@H]4CC(=CC[C@H](O)C4)[C@H]3CC[C@]12C)C(C)O (stereo not given in full) | > 20 | > 20 | > 20 | > 20 | > 20 | > 20 | > 20 | > 20 | > 20 | > 20 | > 20 | > 20 | > 20 | > 20 | > 20 | > 20 | > 20 | > 20 |
| CC(=O)OC(C)C(O)/C=C(\C)[C@H]1CC[C@H]2C3=CC(=O)[C@H]4CC(=CC[C@H](O)C4)[C@H]3CC[C@]12C (stereo not given in full) | > 20 | > 20 | > 20 | > 20 | > 20 | > 20 | > 20 | > 20 | > 20 | > 20 | > 20 | > 20 | > 20 | > 20 | > 20 | > 20 | > 20 | > 20 |
| CC(=O)/C=C/[C@](C)(O)[C@H]1CC[C@H]2C3=CC(=O)[C@H]4CC(=CC[C@H](O)C4)[C@H]3CC[C@@]21C | > 20 | > 20 | > 20 | > 20 | > 20 | > 20 | > 20 | > 20 | > 20 | > 20 | > 20 | > 20 | > 20 | > 20 | > 20 | > 20 | > 20 | > 20 |

More lines, main results first:

| IC50 [1] [µM] | IC50 [2] [µM] | IC50 [3] [µM] | IC50 [4] [µM] | IC50 [5] [µM] | IC50 [6] [µM] | IC50 [7] [µM] | IC50 [8] [µM] | IC50 [9] [µM] | IC50 [11] [µM] | IC50 [13] [µM] | IC50 [14] [µM] | IC50 [15] [µM] | IC50 [16] [µM] | IC50 [18] [µM] | SMILES | IC50 [10] [µM] | IC50 [12] [µM] | IC50 [17] [µM] |
| --- | --- | --- | --- | --- | --- | --- | --- | --- | --- | --- | --- | --- | --- | --- | --- | --- | --- | --- |
| > 20 | > 20 | > 20 | > 20 | > 20 | > 20 | > 20 | > 20 | > 20 | > 20 | > 20 | > 20 | > 20 | > 20 | > 20 | CO[C@H](/C=C(\C)[C@H]1CC[C@H]2C3=CC(=O)[C@H]4CC(=CC[C@H](O)C4)[C@H]3CC[C@]12C)[C@H](C)O | > 20 | > 20 | > 20 |
| > 20 | > 20 | > 20 | > 20 | > 20 | > 20 | > 20 | > 20 | > 20 | > 20 | > 20 | > 20 | > 20 | > 20 | > 20 | C/C(=C\[C@H](O)[C@H](C)O)[C@H]1CC[C@H]2C3=CC(=O)[C@H]4CC(=CC[C@H](O)C4)[C@H]3CC[C@]12C [NEOCYCLOCITRINOL B] | > 20 | > 20 | > 20 |
| > 20 | > 20 | > 20 | > 20 | > 20 | > 20 | > 20 | > 20 | > 20 | > 20 | > 20 | > 20 | > 20 | > 20 | > 20 | C/C(=C\[C@@H](O)[C@@H](C)O)[C@H]1CC[C@H]2C3=CC(=O)[C@H]4CC(=CC[C@H](O)C4)[C@H]3CC[C@]12C | > 20 | > 20 | > 20 |
| > 20 | > 20 | > 20 | > 20 | > 20 | > 20 | > 20 | > 20 | > 20 | > 20 | > 20 | > 20 | > 20 | > 20 | > 20 | CO[C@@H](/C=C(\C)[C@H]1CC[C@H]2C3=CC(=O)[C@H]4CC(=CC[C@H](O)C4)[C@H]3CC[C@]12C)[C@@H](C)O | > 20 | > 20 | > 20 |
| > 20 | > 20 | > 20 | > 20 | > 20 | > 20 | > 20 | > 20 | > 20 | > 20 | > 20 | > 20 | > 20 | > 20 | > 20 | C/C(=C\[C@H](O)[C@@H](C)O)[C@H]1CC[C@H]2C3=CC(=O)[C@H]4CC(=CC[C@H](O)C4)[C@H]3CC[C@]12C | > 20 | > 20 | > 20 |
